Columns and labels:
Assay type in all cases: cell-based
C. albicans [1] = test: Neutral, additive or synergistic effect of combinations of novamycin plus other antifungal agents, Example 3; details: for Antifungal MIC100: antifungal alone; for MIC100 in Combination, AF: antifungal in combination with Novamycin; for Effect: combination of the antifungal with Novamycin
Protocol: (§1) Antimicrobial susceptibility testing was performed based on CLSI approved standards M27-A3 and M38-A2. The effects of antimicrobial combinations were evaluated using a chequerboard method (Burkhart et al., 2006) in CLSI conditions.
(§2) The neutral, additive or synergistic effect of combinations of novamycin plus other antifungal agents was studied.

A. fumigatus [2] = test: as above; details: for Antifungal MIC100: antifungal alone; for MIC100 in Combination, AF: antifungal in combination with Novamycin; for Effect: combination of the antifungal with Novamycin
Protocol: as §1, §2

C. albicans [3] = test: Antimicrobial susceptibility testing (CLSI M27-A3/M38-A2, chequerboard), MIC100, Example 2; details: for MIC100 of the antifungal in combination with Novamycin (+): in combination with MIC100 and sub-MIC100 concentrations of Novamycin; for MIC: Candida albicans
Protocol: as §1
(§3) Table 1. The MIC100 of clinically used antifungals individually (−) and in combination (+) with Novamycin®.
(§4) (−)=MIC100 (μg/mL) of the antifungal alone (+)=MIC100 (μg/mL) of the antifungal in combination with Novamycin®—=Not analysed

E. dermatitidis = test: as above; details: for MIC100 of the antifungal in combination with Novamycin (+): in combination with MIC100 and sub-MIC100 concentrations of Novamycin; for MIC: Exophiala dermatitidis
Protocol: as §1, §3, §4

A. fumigatus [4] = test: as above; details: for MIC100 of the antifungal in combination with Novamycin (+): in combination with MIC100 and sub-MIC100 concentrations of Novamycin; for MIC: Aspergillus fumigatus
Protocol: as §1, §3, §4

C[C@@H]1[C@H](O)[C@@H](C)/C=C/C=C/C=C/C=C/C=C/C=C/C=C/[C@H](O[C@@H]2O[C@H](C)[C@@H](O)[C@H](N)[C@@H]2O)C[C@@H]2O[C@](O)(C[C@@H](O)C[C@@H](O)[C@H](O)CC[C@@H](O)C[C@@H](O)CC(=O)O[C@H]1C)C[C@H](O)[C@H]2C(=O)O [AmB, amphotericin B]
Antifungal MIC100 (C. albicans [1]): 0.5 µg/mL
MIC100 in Combination, AF (C. albicans [1]): 0.05 µg/mL
Effect (C. albicans [1]): Additive
Antifungal MIC100 (A. fumigatus [2]): 0.25 µg/mL
MIC100 in Combination, AF (A. fumigatus [2]): 0.03 µg/mL
Effect (A. fumigatus [2]): Additive
MIC100 of the antifungal alone (−) (C. albicans [3]; antifungal alone): 0.25 µg/mL
MIC100 of the antifungal in combination with Novamycin (+) (C. albicans [3]): 0.13 µg/mL
MIC100 of the antifungal alone (−) (E. dermatitidis; antifungal alone): 1 µg/mL
MIC100 of the antifungal in combination with Novamycin (+) (E. dermatitidis): 0.12 µg/mL
MIC100 of the antifungal alone (−) (A. fumigatus [4]; antifungal alone): 0.25 µg/mL
MIC100 of the antifungal in combination with Novamycin (+) (A. fumigatus [4]): 0.03 µg/mL

CC[C@H](C)C[C@H](C)CCCCCCCCC(=O)N[C@H]1C[C@@H](O)[C@@H](NCCN)NC(=O)[C@@H]2[C@@H](O)CCN2C(=O)[C@H]([C@H](O)CCN)NC(=O)[C@H]([C@H](O)[C@@H](O)c2ccc(O)cc2)NC(=O)[C@@H]2C[C@@H](O)CN2C(=O)[C@H]([C@@H](C)O)NC1=O [CFN, caspofungin]
Antifungal MIC100 (C. albicans [1]): 0.5 µg/mL
MIC100 in Combination, AF (C. albicans [1]): 0.03 µg/mL
Effect (C. albicans [1]): Additive
Antifungal MIC100 (A. fumigatus [2]): 0.06 µg/mL
MIC100 in Combination, AF (A. fumigatus [2]): 0.04 µg/mL
Effect (A. fumigatus [2]): Additive
MIC (C. albicans [3]; antifungal alone): 0.5 µg/mL
MIC100 of the antifungal in combination with Novamycin (+) (C. albicans [3]): 0.03 µg/mL
MIC (E. dermatitidis; antifungal alone): 31.2 µg/mL
MIC100 of the antifungal in combination with Novamycin (+) (E. dermatitidis): 3.94 µg/mL
MIC (A. fumigatus [4]; antifungal alone): 0.06 µg/mL
MIC100 of the antifungal in combination with Novamycin (+) (A. fumigatus [4]): 0.06 µg/mL

CCC(C)n1ncn(-c2ccc(N3CCN(c4ccc(OCC5COC(Cn6cncn6)(c6ccc(Cl)cc6Cl)O5)cc4)CC3)cc2)c1=O (stereo not drawn) [ITZ, itraconazole]
MIC (E. dermatitidis; antifungal alone): 4 µg/mL
MIC100 of the antifungal in combination with Novamycin (+) (E. dermatitidis): 2 µg/mL

CC[C@@H]([C@H](C)O)n1ncn(-c2ccc(N3CCN(c4ccc(OC[C@@H]5CO[C@@](Cn6cncn6)(c6ccc(F)cc6F)C5)cc4)CC3)cc2)c1=O [PCZ, pozaconazole]
Antifungal MIC100 (C. albicans [1]): < 0.03 µg/mL
MIC100 in Combination, AF (C. albicans [1]): < 0.03 µg/mL
Effect (C. albicans [1]): Neutral
Antifungal MIC100 (A. fumigatus [2]): 0.25 µg/mL
MIC100 in Combination, AF (A. fumigatus [2]): 0.125 µg/mL
Effect (A. fumigatus [2]): Additive
MIC (C. albicans [3]; antifungal alone): 0.13 µg/mL
MIC100 of the antifungal in combination with Novamycin (+) (C. albicans [3]): 0.06 µg/mL
MIC (A. fumigatus [4]; antifungal alone): 0.25 µg/mL
MIC100 of the antifungal in combination with Novamycin (+) (A. fumigatus [4]): 0.125 µg/mL

C[C@@H](c1ncncc1F)[C@](O)(Cn1cncn1)c1ccc(F)cc1F [Voriconazole]
Antifungal MIC100 (A. fumigatus [2]): 0.25 µg/mL
MIC100 in Combination, AF (A. fumigatus [2]): 0.25 µg/mL
Effect (A. fumigatus [2]): Neutral
